According to patent US11098102B2, “Insulin conjugates” (SANOFI, priority 2018, dated 2021):

target: insulin receptor isoform B (IR-B) (Homo sapiens, UniProt P06213); experiment: Insulin receptor autophosphorylation assay (In-Cell Western, CHO cells, Example 8B); assay type: cell-based; set-up: expressed in transfected cells; host or cells: CHO cells; conditions: relative to human insulin
Sequence (P06213 28-758 limits assumed): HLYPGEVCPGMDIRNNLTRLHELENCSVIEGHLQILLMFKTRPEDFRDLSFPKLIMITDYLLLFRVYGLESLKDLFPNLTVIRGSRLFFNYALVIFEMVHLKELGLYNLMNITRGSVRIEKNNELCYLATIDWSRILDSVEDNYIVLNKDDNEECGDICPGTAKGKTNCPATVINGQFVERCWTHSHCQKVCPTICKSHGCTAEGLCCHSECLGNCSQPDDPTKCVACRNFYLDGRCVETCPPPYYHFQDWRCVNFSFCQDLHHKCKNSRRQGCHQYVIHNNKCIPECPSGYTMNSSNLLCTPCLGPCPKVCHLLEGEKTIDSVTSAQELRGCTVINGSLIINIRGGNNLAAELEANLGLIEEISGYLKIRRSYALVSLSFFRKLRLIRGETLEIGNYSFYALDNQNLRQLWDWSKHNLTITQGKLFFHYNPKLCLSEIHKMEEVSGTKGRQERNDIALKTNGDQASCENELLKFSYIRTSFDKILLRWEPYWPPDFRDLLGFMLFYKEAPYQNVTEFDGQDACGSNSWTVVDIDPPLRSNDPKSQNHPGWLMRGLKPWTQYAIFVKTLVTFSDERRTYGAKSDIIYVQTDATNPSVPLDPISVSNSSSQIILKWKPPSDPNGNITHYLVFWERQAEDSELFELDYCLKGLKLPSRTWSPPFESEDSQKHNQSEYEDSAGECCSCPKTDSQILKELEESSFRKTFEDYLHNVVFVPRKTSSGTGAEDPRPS
Sequence (P06213 763-1382 limits assumed): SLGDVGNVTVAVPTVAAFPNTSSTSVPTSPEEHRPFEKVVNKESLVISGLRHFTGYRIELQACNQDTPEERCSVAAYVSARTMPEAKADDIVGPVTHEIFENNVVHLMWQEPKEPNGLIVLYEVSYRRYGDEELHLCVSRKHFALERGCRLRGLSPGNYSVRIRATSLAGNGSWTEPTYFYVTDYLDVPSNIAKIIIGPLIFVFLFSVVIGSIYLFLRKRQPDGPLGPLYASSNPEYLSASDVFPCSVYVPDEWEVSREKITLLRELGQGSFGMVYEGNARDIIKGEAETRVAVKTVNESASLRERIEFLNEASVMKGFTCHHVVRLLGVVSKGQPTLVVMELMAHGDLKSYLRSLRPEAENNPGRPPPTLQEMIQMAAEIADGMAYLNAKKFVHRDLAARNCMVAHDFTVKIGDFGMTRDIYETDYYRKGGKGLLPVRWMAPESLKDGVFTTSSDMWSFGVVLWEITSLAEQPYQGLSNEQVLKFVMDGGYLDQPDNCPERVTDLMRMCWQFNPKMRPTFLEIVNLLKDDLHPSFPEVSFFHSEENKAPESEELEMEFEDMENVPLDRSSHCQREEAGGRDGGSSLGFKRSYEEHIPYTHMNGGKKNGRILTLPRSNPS

SMILES | autophosphorylation activity
O=C(O)CCCCCCCCCCCCCCOc1ccc(S(=O)(=O)Nc2ncc(C(=O)CCCCCCC(=O)NCCOCCOCC(=O)NCCOCCOCC(=O)O)cn2)cc1 [Binder 6] | 0.32
O=C(O)CCCCCCCCCCCCCc1cc(Oc2ccc(S(=O)(=O)Nc3ncc(C(=O)NCCOCCOCC(=O)NCCOCCOCC(=O)O)cn3)cc2)ccc1F [Binder 8] | 0.17
O=C(O)CCCCCCCCCCCc1ccc(Oc2ccc(S(=O)(=O)Nc3ccc(C(=O)NCCOCCOCC(=O)NCCOCCOCC(=O)O)cn3)cc2)cc1 [Binder 27] | 0.11
O=C(O)CCCCCCCCCCCCCc1cccc(S(=O)(=O)Nc2ncc(C(=O)NCCOCCOCC(=O)NCCOCCOCC(=O)O)cn2)c1 [Binder 29] | 0.01

target: T1, immobilized human serum albumin (Homo sapiens, UniProt P02768); experiment: Albumin binding: affinity chromatography on columns with immobilized human serum albumin (net retention time); conditions: isolated binders; HSA column 25° C., PBS pH 7.4/isopropanol gradient
T1 construct: purchased Chiralpak (Chiraltech) 34712
T1 sequence (P02768 25-609): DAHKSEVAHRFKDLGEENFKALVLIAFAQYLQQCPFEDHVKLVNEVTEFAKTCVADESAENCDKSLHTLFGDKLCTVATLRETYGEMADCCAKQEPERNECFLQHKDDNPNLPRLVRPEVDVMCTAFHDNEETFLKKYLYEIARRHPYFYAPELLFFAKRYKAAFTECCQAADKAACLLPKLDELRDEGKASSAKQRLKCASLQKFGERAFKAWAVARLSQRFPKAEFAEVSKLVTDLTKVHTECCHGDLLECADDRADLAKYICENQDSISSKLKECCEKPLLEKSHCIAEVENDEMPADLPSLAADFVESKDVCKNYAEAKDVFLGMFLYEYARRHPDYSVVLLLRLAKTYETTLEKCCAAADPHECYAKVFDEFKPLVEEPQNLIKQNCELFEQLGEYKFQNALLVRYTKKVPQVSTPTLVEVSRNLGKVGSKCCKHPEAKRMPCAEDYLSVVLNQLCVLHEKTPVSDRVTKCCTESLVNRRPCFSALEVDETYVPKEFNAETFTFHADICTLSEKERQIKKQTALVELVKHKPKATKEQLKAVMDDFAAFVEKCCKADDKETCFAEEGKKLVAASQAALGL
Method: In order to identify suitable binder molecules, which when bound to a peptide, such as an insulin, are able to improve the half-life in plasma and to prolong the profile of action, a system was established based on affinity chromatography with serum albumin columns, i.e. columns with immobilized serum albumin.
The net retention time of the binders (samples) was calculated according to the following formula: Net retention time=RetTimeSample−RetTimet0 marker
• Instrument: Waters Alliance 2795/Waters PDA 2996 or Waters H-Class UPLC equipped with a Waters Acquity photodiode-array detector • Software: Waters Empower 3 • Column: […]® HSA 50×4 mm; 5 μm Particle size • Chiraltech Order Numbers: HSA: 34712 • Eluent A: Phosphate Buffer saline (PBS) at pH=7.4 • Gibco PBS pH7.4 (10×) Phosphate Buffered Saline 500 ml; • Order Number: 70011-036 (500 ml) • Eluent B: Isopropanol • Fisher Order Number: A461-1 (10 • Gradient:
• Column temperature: 25° C. • Flow rate: 1.0 ml/min • Detection: λ=220 nm • Injection volume: 20 μL • Sample Conc.: 1 mg/ml insulin solution in PBS for insulin samples • 5 μL of 10 mM DMSO stock solution (DMSO evaporated and re-dissolved in 200 μL i-propanol/water 1:1 v/v) for isolated binder samples (250 μM, 0.2 mg/ml at 800 Da MolWeight) • t0 marker Sodium Nitrate (NaNO3) solution in water, 0.05 mg/ml • Diluted from aqueous 1 mg/ml stock solution (Fluka Order Number: 74246-100ML) • Reported Value Net retention time of sample: RetTime Sample−RetTime t0 marker
Affinity chromatography was carried out i) for insulin conjugates according to Examples 3.3 and 3.4 on a Waters Alliance Separation Module 2695 equipped with a Waters photodiode-array detector 2996 or Waters H-Class UPLC equipped with a Waters Acquity photodiode-array detector and ii) for isolated binders according to Example 2.11 on a Waters Alliance Separation Module 2795 equipped with a Waters photodiode-array detector 2996 or Waters H-Class UPLC equipped with a Waters Acquity photodiode-array detector.
Columns with immobilized human serum albumin (50×4 mm; 5 μm particle size) were purchased from Chiralpak and used for separations.
The columns with immobilized serum albumin were kept at 25° C. during the LC run, UV detection was carried out at 220 nm and injection volume was 20 μL.
The net retention time of the samples was reported according to Net retention time=RetTime Sample−RetTime t0 marker

SMILES | NRT [min] (net retention time on columns with immobilized human serum albumin)
O=C(O)CCCCCCCCCc1ccc(OCc2ccc(S(=O)(=O)Nc3ncc(C(=O)NCCOCCOCC(=O)NCCOCCOCC(=O)O)cn3)cc2)cc1 [Binder 1] | 16.76 min
O=C(O)CCCCCCCCCCCCCCOc1ccc(S(=O)(=O)Nc2ncc(C(=O)NCCOCCOCC(=O)NCCOCCOCC(=O)O)cn2)cc1 [Binder 5] | 14.32 min
O=C(O)CCCCCCCCCCCCCCOc1ccc(S(=O)(=O)Nc2ncc(C(=O)CCCCCCC(=O)NCCOCCOCC(=O)NCCOCCOCC(=O)O)cn2)cc1 [Binder 6] | 14.31 min
O=C(O)CCCCCCCCCCCCCc1cc(Oc2ccc(S(=O)(=O)Nc3ncc(C(=O)NCCOCCOCC(=O)NCCOCCOCC(=O)O)cn3)cc2)ccc1F [Binder 8] | 15.29 min
O=C(O)CCCCCCCCCCCCCCOc1ccc(S(=O)(=O)Nc2ccc(C(=O)NCCOCCOCC(=O)NCCOCCOCC(=O)O)cn2)cc1 [Binder 9] | 14.01 min
O=C(O)CCCCCCCCCCCCCc1cccc(S(=O)(=O)Nc2ccc(C(=O)NCCOCCOCC(=O)NCCOCCOCC(=O)O)cn2)c1 [Binder 21] | 16.26 min
O=C(O)CCCCCCCCCCCc1ccc(Oc2ccc(S(=O)(=O)Nc3ccc(C(=O)NCCOCCOCC(=O)NCCOCCOCC(=O)O)cn3)cc2)cc1 [Binder 27] | 15.01 min
O=C(O)CCCCCCCCCCCCCc1cccc(S(=O)(=O)Nc2ncc(C(=O)NCCOCCOCC(=O)NCCOCCOCC(=O)O)cn2)c1 [Binder 29] | 15.66 min
O=C(O)CCCCCCCCCCCCCCCCCc1cccc(S(=O)(=O)Nc2ncc(C(=O)NCCOCCOCC(=O)NCCOCCOCC(=O)O)cn2)c1 [Binder 41] | 14.98 min
O=C(O)CCCCCCCCCCCCCc1ccc(Oc2ccc(S(=O)(=O)Nc3ccc(C(=O)NCCOCCOCC(=O)NCCOCCOCC(=O)O)cn3)cc2)cc1 [Binder 42] | 14.35 min
O=C(O)CCCCCCCc1ccc(CCOc2ccc(S(=O)(=O)Nc3ccc(C(=O)NCCOCCOCC(=O)NCCOCCOCC(=O)O)cn3)cc2)cc1 [Binder 43] | 11.36 min
O=C(O)CCCCCCCCCCCCCc1ccc(OCc2ccc(S(=O)(=O)Nc3ccc(C(=O)NCCOCCOCC(=O)NCCOCCOCC(=O)O)cn3)cc2)cc1 [Binder 44] | 15.04 min
O=C(O)CCCCCCCCCCCCCCCOc1ccc(S(=O)(=O)Nc2ncc(C(=O)NCCOCCOCC(=O)NCCOCCOCC(=O)O)c(C(F)(F)F)n2)cc1 [Binder 45] | 13.8 min
O=C(O)CCCCCCCc1ccc(CCOc2ccc(S(=O)(=O)Nc3ccc(C(=O)NCCOCCOCC(=O)NCCOCCOCC(=O)O)cn3)cc2)cc1 [Binder 46] | 14.48 min
Cc1nc(NS(=O)(=O)c2ccc(OCCCCCCCCCCCCCCCC(=O)O)cc2)ncc1C(=O)NCCOCCOCC(=O)NCCOCCOCC(=O)O [Binder 47] | 13.73 min
O=C(O)CCCCCCCCCCCCCCCOc1ccc(S(=O)(=O)Nc2ncc(C(=O)NCCOCCOCC(=O)NCCOCCOCC(=O)O)cn2)cc1Cl [Binder 50] | 13.74 min

SMILES | NRT [min] (net retention time on columns with immobilized human serum albumin)
O=C(O)CCCCCCCCCCCCCCCOc1ccc(S(=O)(=O)Nc2ccc(C(=O)NCCOCCOCC(=O)NCCOCCOCC(=O)O)cn2)cc1Cl [Binder 51] | 13.59 min
O=C(O)CCCCCCCCCc1ccc(Oc2ccc(S(=O)(=O)Nc3ncc(C(=O)NCCOCCOCC(=O)NCCOCCOCC(=O)O)cn3)cc2)cc1F [Binder 52] | 14.56 min
O=C(O)CCCCCCCCCCCc1ccc(S(=O)(=O)Nc2ncc(C(=O)NCCOCCOCC(=O)NCCOCCOCC(=O)O)cn2)cc1 [Binder 53] | 12.29 min
O=C(O)CCCCCCCCCCCCCCCc1ccc(S(=O)(=O)Nc2ncc(C(=O)NCCOCCOCC(=O)NCCOCCOCC(=O)O)cn2)cc1 [Binder 54] | 15.19 min
O=C(O)CCCCCCCCCCCCCCCCCc1cccc(S(=O)(=O)Nc2ncc(C(=O)NCCOCCOCC(=O)NCCOCCOCC(=O)O)cn2)c1 [Binder 55] | 15.01 min
O=C(O)CCCCCCCCCCCCCCCc1ccc(S(=O)(=O)Nc2ccc(C(=O)NCCOCCOCC(=O)NCCOCCOCC(=O)O)cn2)cc1 [Binder 59] | 15.47 min
O=C(O)CCCCCCCc1cc(Oc2ccc(S(=O)(=O)Nc3ncc(C(=O)NCCOCCOCC(=O)NCCOCCOCC(=O)O)cn3)cc2)ccc1F [Binder 63] | 13.42 min
O=C(O)CCCCCCCCCCCCCc1ccc(OCc2ccc(S(=O)(=O)Nc3ncc(C(=O)NCCOCCOCC(=O)NCCOCCOCC(=O)O)cn3)cc2)cc1 [Binder 64] | 14.78 min
O=C(O)CCCCCCCCCCCc1cccc(S(=O)(=O)Nc2ccc(C(=O)NCCOCCOCC(=O)NCCOCCOCC(=O)O)cn2)c1 [Binder 65] | 12.21 min
O=C(O)CCCCCCCCCc1ccc(S(=O)(=O)Nc2ncc(C(=O)NCCOCCOCC(=O)NCCOCCOCC(=O)O)cn2)cc1 [Binder 66] | 9.87 min
O=C(O)CCCCCCCCCc1ccc(S(=O)(=O)Nc2ccc(C(=O)NCCOCCOCC(=O)NCCOCCOCC(=O)O)cn2)cc1 [Binder 67] | 10.99 min
O=C(O)CCCCCCCCCCCCCCCOc1cccc(S(=O)(=O)Nc2ncc(C(=O)NCCOCCOCC(=O)NCCOCCOCC(=O)O)cn2)c1 [Binder 68] | 14.74 min
O=C(O)CCCCCCCCCCCCCCCCCOc1ccc(S(=O)(=O)Nc2ncc(C(=O)NCCOCCOCC(=O)NCCOCCOCC(=O)O)cn2)cc1 [Binder 69] | 14.24 min
O=C(O)CCCCCCCCCCCCCCCCCOc1ccc(S(=O)(=O)Nc2ccc(C(=O)NCCOCCOCC(=O)NCCOCCOCC(=O)O)cn2)cc1 [Binder 70] | 14.26 min
O=C(O)CCCCCCCCCCCCCCCCCCCOc1ccc(S(=O)(=O)Nc2ccc(C(=O)NCCOCCOCC(=O)NCCOCCOCC(=O)O)cn2)cc1 [Binder 71] | 14.42 min
O=C(O)CCCCCCCCCCCCCCCOc1cc(Cl)c(S(=O)(=O)Nc2ncc(C(=O)NCCOCCOCC(=O)NCCOCCOCC(=O)O)cn2)cc1Cl [Binder 72] | 13.96 min
